Source: patent publication US20240101542A1, “ERAP INHIBITORS” (UNIVERSITE DE LILLE, priority 2020, published 2024)

How the values were obtained:
[1] = target: ERAP2 (Homo sapiens (Human), UniProt Q6P179); assay: In vitro ERAP activity assay, ERAP2 with R-AMC substrate; format: biochemical; design: IC50 on ERAP2 using R-AMC as substrate: scale not given here; settings: R-AMC as substrate; for IC50: read-out: IC50 on ERAP2 using R-AMC as substrate
Procedure: (§1) The enzymatic activity of ERAP1 or 2 was assayed using L-AMC (L-Leucine-7-amido-4-methylcoumarin hydrochloride) or R-AMC (L-Arginine-7-amido-4-methylcoumarin hydrochloride) respectively. Hepes at 50 mM with 100 mM NaCl at pH 7 was used as buffer. Briefly, 60 nL of test compounds were added in 384-wells plates (dark, non-binding surface) by acoustic dispensing with nanoacoustic dispenser Echo (Labcyte) and pre-incubated 30 minutes at ambient temperature with 10 μL of ERAP 0.8 μg/mL or 1 μg/mL or vehicle. The reaction was then started with the addition of 10 μL of substrate at 10 μM. The final concentration of ERAP, substrate and DMSO was 0.5 μg/mL, 5 μM and 0.4% respectively. For the kinetic readout a Victor 3V (Perkin-Elmer) was used with excitation at 380 nm and emission at 450 nm. The fluorescence was measured each 3 minutes during one hour.
(§2) The Z and Z′ factors were calculated according to J.-H. Zhang, T. D. Y. Chung, K. R. Oldenburg, A Simple Statistical Parameter for Use in Evaluation and Validation of High Throughput Screening Assays, J. Biomol. Screen., 4 (1999) 67-73. Data analysis was performed using Xlfit® v 5.0 or GraphPad Prism® v 4.0.
(§3) Percentages of inhibition at different concentrations were obtained as described above and IC50s were carried out as 8-point dose response curves and reported as the average of at least three independent measurements. […] Data analysis was performed using Xlfit® v 5.0 or GraphPad Prism® v 4.0. Nonlinear curve fitting and statistical analysis was done using built-in functions.

[2] = target: ERAP1 (Homo sapiens (Human), UniProt Q9NZ08); assay: In vitro ERAP activity assay, ERAP1 with L-AMC substrate; format: biochemical; settings: L-AMC as substrate; read-out: IC50 on ERAP1 or ERAAP using L-AMC as substrate
ERAP1, sequence (Q9NZ08 whole entry): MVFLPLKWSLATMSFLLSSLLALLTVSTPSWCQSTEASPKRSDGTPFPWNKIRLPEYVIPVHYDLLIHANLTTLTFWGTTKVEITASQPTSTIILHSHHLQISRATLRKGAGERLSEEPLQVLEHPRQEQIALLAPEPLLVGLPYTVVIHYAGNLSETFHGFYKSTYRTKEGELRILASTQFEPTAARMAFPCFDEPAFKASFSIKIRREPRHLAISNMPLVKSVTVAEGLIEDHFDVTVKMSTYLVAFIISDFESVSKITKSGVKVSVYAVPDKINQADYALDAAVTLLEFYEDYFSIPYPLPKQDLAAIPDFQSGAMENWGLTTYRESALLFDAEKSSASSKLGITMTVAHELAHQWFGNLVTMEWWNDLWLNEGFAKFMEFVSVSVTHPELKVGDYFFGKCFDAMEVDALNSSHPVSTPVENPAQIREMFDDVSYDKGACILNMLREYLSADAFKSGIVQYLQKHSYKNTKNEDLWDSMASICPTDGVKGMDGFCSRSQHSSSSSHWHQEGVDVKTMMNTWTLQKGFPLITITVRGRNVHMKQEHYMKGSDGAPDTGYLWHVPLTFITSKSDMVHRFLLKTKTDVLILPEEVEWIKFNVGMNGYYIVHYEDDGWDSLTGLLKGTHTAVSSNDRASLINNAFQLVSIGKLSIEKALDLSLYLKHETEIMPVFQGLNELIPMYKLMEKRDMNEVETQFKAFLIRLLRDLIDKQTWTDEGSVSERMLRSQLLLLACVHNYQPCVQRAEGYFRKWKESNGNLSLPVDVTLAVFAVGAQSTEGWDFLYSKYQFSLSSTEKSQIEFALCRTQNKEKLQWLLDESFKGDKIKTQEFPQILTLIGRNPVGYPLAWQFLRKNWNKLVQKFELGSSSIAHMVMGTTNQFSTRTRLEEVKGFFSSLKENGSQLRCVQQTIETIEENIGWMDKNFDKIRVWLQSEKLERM
Procedure: as §1, §2, §3

ERAP2, sequence (Q6P179 whole entry): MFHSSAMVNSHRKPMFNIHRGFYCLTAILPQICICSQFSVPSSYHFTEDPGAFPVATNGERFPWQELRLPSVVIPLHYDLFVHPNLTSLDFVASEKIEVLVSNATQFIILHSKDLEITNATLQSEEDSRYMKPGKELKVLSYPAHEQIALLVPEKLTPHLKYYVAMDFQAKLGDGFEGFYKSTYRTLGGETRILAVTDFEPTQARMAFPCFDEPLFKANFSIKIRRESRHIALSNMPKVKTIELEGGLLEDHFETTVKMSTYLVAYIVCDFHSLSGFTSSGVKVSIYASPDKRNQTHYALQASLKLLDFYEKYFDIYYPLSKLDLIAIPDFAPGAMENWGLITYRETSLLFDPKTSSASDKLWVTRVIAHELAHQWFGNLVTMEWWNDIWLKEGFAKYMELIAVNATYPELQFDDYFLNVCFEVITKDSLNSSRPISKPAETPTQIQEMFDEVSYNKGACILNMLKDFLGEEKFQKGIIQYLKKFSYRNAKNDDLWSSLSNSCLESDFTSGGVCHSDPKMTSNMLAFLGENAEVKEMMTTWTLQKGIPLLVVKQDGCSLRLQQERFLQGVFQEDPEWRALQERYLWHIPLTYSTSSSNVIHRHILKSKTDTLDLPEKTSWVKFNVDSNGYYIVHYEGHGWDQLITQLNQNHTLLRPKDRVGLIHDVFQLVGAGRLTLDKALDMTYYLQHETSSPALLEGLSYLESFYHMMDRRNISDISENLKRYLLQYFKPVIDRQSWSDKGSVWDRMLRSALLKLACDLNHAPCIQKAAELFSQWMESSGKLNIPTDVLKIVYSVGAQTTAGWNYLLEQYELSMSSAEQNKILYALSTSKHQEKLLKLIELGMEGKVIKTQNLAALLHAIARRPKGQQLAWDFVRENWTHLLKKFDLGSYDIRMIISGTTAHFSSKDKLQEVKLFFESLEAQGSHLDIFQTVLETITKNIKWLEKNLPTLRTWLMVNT

IC50 [1]	IC50 [2]	IC50 on ERAP2 using R-AMC as substrate [1]	SMILES
< 0.5 µM	< 5 µM	–	N=C(NO)c1ccc(C[C@@H](C(=O)NO)n2cc(CNS(=O)(=O)c3ccc(-c4ccccc4)s3)nn2)cc1 [Compound 55]
< 0.5 µM	< 5 µM	–	COc1ccc(C[C@@H](C(=O)NO)n2cc(CNS(=O)(=O)c3cnc(-c4ccccc4)s3)nn2)cc1 [Compound 56]
–	> 5 µM	+ +	COc1ccc(C[C@@H](C(=O)NO)n2cc(CN(C3CC3)S(=O)(=O)c3ccc(-c4ccccn4)s3)nn2)cc1 [Compound 57]
> 5 µM	< 5 µM	–	COc1ccc(C[C@@H](C(=O)NO)n2cc(C3CCCCN3S(=O)(=O)c3ccc(-c4ccccc4)s3)nn2)cc1 (stereo partly drawn) [Compound 58]
> 5 µM	< 5 µM	–	COc1ccc(C[C@@H](C(=O)NO)n2cc([C@@H]3CCCN3S(=O)(=O)c3ccc(-c4ccccc4)s3)nn2)cc1 [Compound 59]
< 0.5 µM	< 5 µM	–	N#Cc1ccc(C[C@@H](C(=O)NO)n2cc(CNS(=O)(=O)c3ccc(-c4ccccc4)s3)nn2)cc1 [Compound 60]
